Test results reported in PubChem BioAssay AID1259407 (Chemical Carcinogenesis Research Information System (CCRIS), 2018).
Activity calls are given as the source filed them. How the calls were made is not given here.

Tested on: CCRIS mutagenicity, Ames/micronucleus/aberration tests
Assay: CCRIS mutagenicity studies
Source text: The CCRIS database contains chemical records with carcinogenicity, mutagenicity, tumor promotion, and tumor inhibition test results. It was developed by the National Cancer Institute (NCI). Data are derived from studies cited in primary journals, current awareness tools, NCI reports, and other sources. Test results have been reviewed by experts in carcinogenesis and mutagenesis.
CCRIS provides historical information from the years 1985 - 2011. It is no longer updated.
This is an archive assay for CCRIS mutagenicity studies.

Measured: mutagenic call

CN(C)P(=O)(N(C)C)N(C)C
active: Test System: AMES SALMONELLA TYPHIMURIUM, Strain/Indicator: TA97, Metabolic Activation: RAT, LIVER, S-9, AROCLOR 1254, Method: SUSPENSION active; positive | Test System: AMES SALMONELLA TYPHIMURIUM, Strain/Indicator: TA98, Metabolic Activation: RAT, LIVER, S-9, AROCLOR 1254, Method: SUSPENSION active; positive | Test System: AMES SALMONELLA TYPHIMURIUM, Strain/Indicator: TA100, Metabolic Activation: RAT, LIVER, S-9, AROCLOR 1254, Method: SUSPENSION active; positive | Test System: AMES SALMONELLA TYPHIMURIUM, Strain/Indicator: TA1537, Metabolic Activation: RAT, LIVER, S-9, AROCLOR 1254, Method: SUSPENSION active; positive | Test System: CHINESE HAMSTER V-79, Strain/Indicator: V-79/6-THIOGUANINE, Metabolic Activation: NONE, Method: REPLATING active; positive | Test System: MOUSE LYMPHOMA, Strain/Indicator: L5178Y (TK+/+)/OUABAIN, Metabolic Activation: NONE, Method: SUSPENSION/PLATE active; positive | Test System: MOUSE LYMPHOMA, Strain/Indicator: L5178Y (TK+/-)/TRIFLUROTHYMIDINE, Metabolic Activation: NONE, Method: SUSPENSION/PLATE active; positive | Test System: MOUSE LYMPHOMA, Strain/Indicator: L5178Y (TK+/TK-), Metabolic Activation: NONE, Method: MICROWELL active; positive | Test System: MOUSE LYMPHOMA, Strain/Indicator: L5178Y (TK+/TK-), Metabolic Activation: S-9, Method: MICROWELL active; positive | Test System: UDS RAT HEPATOCYTES, Strain/Indicator: THY INCORP, Metabolic Activation: NONE, Method: LIQUID SCINTILLATION COUNTING active; positive
inactive: Test System: AMES SALMONELLA TYPHIMURIUM, Strain/Indicator: TA97, Metabolic Activation: HAMSTER LIVER S-9, AROCLOR 1254 (10 OR 30%), Method: PREINCUBATION inactive; negative | Test System: AMES SALMONELLA TYPHIMURIUM, Strain/Indicator: TA97, Metabolic Activation: NONE, Method: PREINCUBATION inactive; negative | Test System: AMES SALMONELLA TYPHIMURIUM, Strain/Indicator: TA97, Metabolic Activation: NONE, Method: STANDARD PLATE inactive; negative | Test System: AMES SALMONELLA TYPHIMURIUM, Strain/Indicator: TA97, Metabolic Activation: RAT LIVER S-9, AROCLOR 1254 (10 OR 30%), Method: PREINCUBATION inactive; negative | Test System: AMES SALMONELLA TYPHIMURIUM, Strain/Indicator: TA97, Metabolic Activation: RAT, LIVER, S-9, AROCLOR 1254, Method: STANDARD PLATE inactive; negative | Test System: AMES SALMONELLA TYPHIMURIUM, Strain/Indicator: TA97, Metabolic Activation: S-9, Method: STANDARD PLATE inactive; negative | Test System: AMES SALMONELLA TYPHIMURIUM, Strain/Indicator: TA98, Metabolic Activation: HAMSTER LIVER S-9, AROCLOR 1254 (10 OR 30%), Method: PREINCUBATION inactive; negative | Test System: AMES SALMONELLA TYPHIMURIUM, Strain/Indicator: TA98, Metabolic Activation: NONE, Method: PREINCUBATION inactive; negative | Test System: AMES SALMONELLA TYPHIMURIUM, Strain/Indicator: TA98, Metabolic Activation: NONE, Method: STANDARD PLATE inactive; negative | Test System: AMES SALMONELLA TYPHIMURIUM, Strain/Indicator: TA98, Metabolic Activation: RAT LIVER S-9, AROCLOR 1254 (10 OR 30%), Method: PREINCUBATION inactive; negative | Test System: AMES SALMONELLA TYPHIMURIUM, Strain/Indicator: TA98, Metabolic Activation: RAT, LIVER, S-9, AROCLOR 1254, Method: STANDARD PLATE inactive; negative | Test System: AMES SALMONELLA TYPHIMURIUM, Strain/Indicator: TA98, Metabolic Activation: S-9, Method: STANDARD PLATE inactive; negative | Test System: AMES SALMONELLA TYPHIMURIUM, Strain/Indicator: TA100, Metabolic Activation: HAMSTER LIVER S-9, AROCLOR 1254 (10 OR 30%), Method: PREINCUBATION inactive; negative | Test System: AMES SALMONELLA TYPHIMURIUM, Strain/Indicator: TA100, Metabolic Activation: NONE, Method: PREINCUBATION inactive; negative | Test System: AMES SALMONELLA TYPHIMURIUM, Strain/Indicator: TA100, Metabolic Activation: NONE, Method: STANDARD PLATE inactive; negative | Test System: AMES SALMONELLA TYPHIMURIUM, Strain/Indicator: TA100, Metabolic Activation: NONE, Method: SUSPENSION inactive; negative | Test System: AMES SALMONELLA TYPHIMURIUM, Strain/Indicator: TA100, Metabolic Activation: RAT LIVER S-9, AROCLOR 1254 (10 OR 30%), Method: PREINCUBATION inactive; negative | Test System: AMES SALMONELLA TYPHIMURIUM, Strain/Indicator: TA100, Metabolic Activation: RAT, LIVER, S-9, AROCLOR 1254 (4, 10 OR 30%), Method: PREINCUBATION inactive; negative | Test System: AMES SALMONELLA TYPHIMURIUM, Strain/Indicator: TA100, Metabolic Activation: RAT, LIVER, S-9, AROCLOR 1254 (10%), Method: STANDARD PLATE inactive; negative | Test System: AMES SALMONELLA TYPHIMURIUM, Strain/Indicator: TA100, Metabolic Activation: RAT, LIVER, S-9, AROCLOR 1254, Method: PREINCUBATION inactive; negative | Test System: AMES SALMONELLA TYPHIMURIUM, Strain/Indicator: TA100, Metabolic Activation: RAT, LIVER, S-9, AROCLOR 1254, Method: STANDARD PLATE inactive; negative | Test System: AMES SALMONELLA TYPHIMURIUM, Strain/Indicator: TA100, Metabolic Activation: S-9, Method: STANDARD PLATE inactive; negative | Test System: AMES SALMONELLA TYPHIMURIUM, Strain/Indicator: TA102, Metabolic Activation: NONE, Method: STANDARD PLATE inactive; negative | Test System: AMES SALMONELLA TYPHIMURIUM, Strain/Indicator: TA102, Metabolic Activation: S-9, Method: STANDARD PLATE inactive; negative | Test System: AMES SALMONELLA TYPHIMURIUM, Strain/Indicator: TA1535, Metabolic Activation: HAMSTER LIVER S-9, AROCLOR 1254 (10 OR 30%), Method: PREINCUBATION inactive; negative | Test System: AMES SALMONELLA TYPHIMURIUM, Strain/Indicator: TA1535, Metabolic Activation: NONE, Method: PREINCUBATION inactive; negative | Test System: AMES SALMONELLA TYPHIMURIUM, Strain/Indicator: TA1535, Metabolic Activation: NONE, Method: STANDARD PLATE inactive; negative | Test System: AMES SALMONELLA TYPHIMURIUM, Strain/Indicator: TA1535, Metabolic Activation: RAT LIVER S-9, AROCLOR 1254 (10 OR 30%), Method: PREINCUBATION inactive; negative | Test System: AMES SALMONELLA TYPHIMURIUM, Strain/Indicator: TA1535, Metabolic Activation: RAT, LIVER, S-9, AROCLOR 1254, Method: STANDARD PLATE inactive; negative | Test System: AMES SALMONELLA TYPHIMURIUM, Strain/Indicator: TA1537, Metabolic Activation: NONE, Method: STANDARD PLATE inactive; negative | Test System: AMES SALMONELLA TYPHIMURIUM, Strain/Indicator: TA1537, Metabolic Activation: RAT, LIVER, S-9, AROCLOR 1254, Method: STANDARD PLATE inactive; negative | Test System: AMES SALMONELLA TYPHIMURIUM, Strain/Indicator: TA1538, Metabolic Activation: NONE, Method: STANDARD PLATE inactive; negative | Test System: AMES SALMONELLA TYPHIMURIUM, Strain/Indicator: TA1538, Metabolic Activation: RAT, LIVER, S-9, AROCLOR 1254, Method: STANDARD PLATE inactive; negative | Test System: CHINESE HAMSTER OVARY, Strain/Indicator: CHO/6-THIOGUANINE, Metabolic Activation: HAMSTER EMBRYO CELL-MEDIATED inactive; negative | Test System: CHINESE HAMSTER OVARY, Strain/Indicator: CHO/6-THIOGUANINE, Metabolic Activation: NONE inactive; negative | Test System: CHINESE HAMSTER OVARY, Strain/Indicator: CHO/OUABAIN, Metabolic Activation: HAMSTER EMBRYO CELL-MEDIATED inactive; negative | Test System: CHINESE HAMSTER OVARY, Strain/Indicator: CHO/OUABAIN, Metabolic Activation: NONE inactive; negative | Test System: CHINESE HAMSTER V-79, Strain/Indicator: V-79 (HGPRT)/6-THIOGUANINE, Metabolic Activation: NONE inactive; negative | Test System: CHINESE HAMSTER V-79, Strain/Indicator: V-79 (HGPRT)/6-THIOGUANINE, Metabolic Activation: RAT, LIVER, S-9, PHENOBARBITAL AND BETA-NAPHTHOFLAVONE inactive; negative | Test System: CHINESE HAMSTER V-79, Strain/Indicator: V-79/OUABAIN, Metabolic Activation: HAMSTER EMBRYO CELL-MEDIATED inactive; negative | Test System: CHINESE HAMSTER V-79, Strain/Indicator: V-79/OUABAIN, Metabolic Activation: RAT, LIVER, S-15, PHENOBARBITAL AND 5,6-BENZOFLAVONE inactive; negative | Test System: MOUSE LYMPHOMA, Strain/Indicator: L5178Y (TK+/-)/TRIFLUOROTHYMIDINE, Metabolic Activation: RAT LIVER S-9, AROCLOR 1254, Method: SUSPENSION/PLATE inactive; negative | Test System: MOUSE LYMPHOMA, Strain/Indicator: L5178Y (TK+/TK-), Metabolic Activation: RAT, LIVER, S-9, AROCLOR 1254, Method: SUSPENSION/PLATE inactive; negative | Test System: MOUSE LYMPHOMA, Strain/Indicator: L5178Y (TK+/TK-), Metabolic Activation: RAT, LIVER, S-9, Method: SUSPENSION/PLATE inactive; negative
